Source: publication PMC13192270, “RhlR quorum-sensing receptor ligand sensitivity regulates the differential expression of phenazine genes in Pseudomonas aeruginosa” (Journal of Bacteriology, 2026)

Test system: ΔrhlI strain expressing RhlR A44M
Assay: RNA-seq gene expression
Assay type: cell-based, Pseudomonas aeruginosa
Parameters: opmD Expression value / mexI Expression value / mexH Expression value / mexG Expression value / lasB Expression value / rhlA Expression value / rhlB Expression value / rhlR Expression value / lecB Expression value / fhp Expression value / chiC Expression value / hcnA Expression value / mvfR Expression value / katB Expression value / norC Expression value / norB Expression value / katA Expression value: unit not given here
Conditions: 2 µM C4HSL
Protocol: To determine the effects of hypo- and hypersensitivity to C4HSL on RhlR-dependent transcription activation in P. aeruginosa, we performed RNA-seq on ΔrhlI strains expressing WT RhlR, RhlR T58L, and RhlR A44M in the presence of 2 µM C4HSL. We chose this approach to better control the levels of C4HSL across samples. All gene expression analyses were done relative to a ΔrhlI strain without exogenous supplementation of AHL. Thus, we examined the total increase in C4HSL-dependent gene regulation. We observed increased rhlA RNA levels in strains expressing WT RhlR and the RhlR T58L variant compared to ΔrhlI without C4HSL or a strain expressing the RhlR A44M variant (Table 2; Table S1). […] To corroborate our RNA-seq data, we built an rhlA promoter fusion to mScarlet and assayed reporter levels in the same genetic backgrounds as our transcriptomic experiment (Fig. S7D). Strains expressing hypersensitive RhlR variants produced similar levels of fluorescent signal relative to the WT strain, while a strain expressing a hyposensitive RhlR variant had diminished levels of fluorescent reporter (Fig. S7D).
A total of […] of overnight cultures was back diluted 1:100 in 20 mL of fresh LB media and incubated for 5 h at 37°C with shaking. Cells were harvested by centrifugation, and pellets were frozen until RNA extraction. RNA was extracted using the Invitrogen PureLink RNA Mini Kit. Pellets were resuspended in 100 µL lysozyme solution containing 10 mM Tris-HCl pH 8.0, 0.1 mM EDTA, and 1 mg/mL lysozyme. Five microliters of 1% SDS was added, and the solution was mixed with a vortex and incubated at room temperature for 5 min. A total of 350 µL lysis buffer (Invitrogen) was added with 10 µL 2-mercaptoethanol for each 1 mL of lysis buffer and vortexed. Cells were lysed by bead beating (BioSpec 0.1 MM Zirconia/Silica Beads) for two rounds of 50 s. Lysed cells were transferred to fresh microcentrifuge tubes with 250 µL of 100% ethanol and mixed with a vortex. Samples were spun in spin cartridges (Invitrogen) at 12,000 × g for 15 s at room temperature, and the flow-through was discarded. A total of 700 µL Wash Buffer I (Invitrogen) was added and spun at 12,000 × g for 15 s at room temperature, and the flow-through was discarded. A total of 500 µL Wash Buffer II (Invitrogen) with ethanol was added and centrifuged for 12,000 × g for 15 s at room temperature; the flow-through was discarded, and RNA samples were washed again. Cells were spun at 12,000 × g for 1 min at room temperature to dry the membrane with the bound RNA. A total of 50 µL RNAse-free water was added to the center of the spin cartridge, incubated at room temperature for 1 min, and centrifuged for 2 min at ≥12,000 × g at room temperature. Extracted RNA was then frozen at −80°C until further use.
Bulk RNA was sent to SeqCenter (Pittsburgh, PA) where it was processed for paired-end Illumina sequencing via rRNA depletion using Ribo-Zero Plus (Illumina). Fastq files generated by SeqCenter were processed using Rockhopper with default settings ([61][–][63]). Briefly, fastq files were aligned to the genome of Pseudomonas aeruginosa UCBPP-PA14. The reads were subsequently normalized using upper-quartile normalization, and transcript abundance was determined by reads per kilobase per million mapped reads. Differential gene expression analysis was conducted using a negative binomial distribution model, outputting a P-value for each transcript. The P-values were then corrected for false discovery using the Benjamini-Hochberg procedure, resulting in the q-values reported here (Table S2). SignalMap v2.0 (NimbleGen Systems) was used to visualize read counts for phzABCDEFG1/2, phzH, phzM, and phzS (Fig. 5). Aligned sequences generated in Rockhopper were converted to GFF files, and genes of interest were isolated into unique GFF files ([37]).

CCCC(=O)N[C@H]1CCOC1=O [C4HSL, N-butyryl-L-homoserine lactone]
chiC Expression value: 132,918.5
fhp Expression value: 8,878
hcnA Expression value: 38,430
katA Expression value: 3,887,333
katB Expression value: 13,211.5
lasB Expression value: 6,614,384
lecB Expression value: 208,420
mexG Expression value: 4,729.5
mexH Expression value: 11,247.5
mexI Expression value: 15,683.5
mvfR Expression value: 214,018
norB Expression value: 28,591
norC Expression value: 12,922.5
opmD Expression value: 6,012
phnA Expression value: 2,884,404
phnB Expression value: 694,083
phzA1 Expression value: 8,661
phzA2 Expression value: 11,533
phzB1 Expression value: 163,479
phzB2 Expression value: 178,704.5
phzC1 Expression value: 135,611.5
phzC2 Expression value: 156,044
phzD1 Expression value: 153,729
phzD2 Expression value: 137,242.5
phzE1 Expression value: 282,659.5
phzE2 Expression value: 202,642.5
phzF1 Expression value: 137,969
phzF2 Expression value: 139,410.5
phzG1 Expression value: 118,586
phzG2 Expression value: 88,845
phzM Expression value: 93,038
phzS Expression value: 303,377
pqsA Expression value: 3,743,059.5
pqsB Expression value: 5,794,985
pqsC Expression value: 5,614,134
pqsD Expression value: 6,055,112.5
pqsE Expression value: 3,188,208
rhlA Expression value: 200,100.5
rhlB Expression value: 165,369.5
rhlR Expression value: 581,659
chiC Log2fold change (vs ΔrhlI without AHL): −0.05904
fhp Log2fold change (vs ΔrhlI without AHL): 0.2001
hcnA Log2fold change (vs ΔrhlI without AHL): 0.2595
katA Log2fold change (vs ΔrhlI without AHL): 0.3253
katB Log2fold change (vs ΔrhlI without AHL): 0.1017
lasB Log2fold change (vs ΔrhlI without AHL): 1.048
lecB Log2fold change (vs ΔrhlI without AHL): −0.7762
mexG Log2fold change (vs ΔrhlI without AHL): 0.2215
mexH Log2fold change (vs ΔrhlI without AHL): 0.2256
mexI Log2fold change (vs ΔrhlI without AHL): −0.1584
mvfR Log2fold change (vs ΔrhlI without AHL): −0.1373
norB Log2fold change (vs ΔrhlI without AHL): −0.5108
norC Log2fold change (vs ΔrhlI without AHL): −0.6332
opmD Log2fold change (vs ΔrhlI without AHL): −0.2426
phnA Log2fold change (vs ΔrhlI without AHL): 0.3171
phnB Log2fold change (vs ΔrhlI without AHL): 0.2753
phzA1 Log2fold change (vs ΔrhlI without AHL): −1.792
phzA2 Log2fold change (vs ΔrhlI without AHL): 0.1326
phzB1 Log2fold change (vs ΔrhlI without AHL): −1.046
phzB2 Log2fold change (vs ΔrhlI without AHL): −0.2412
phzC1 Log2fold change (vs ΔrhlI without AHL): −0.6965
phzC2 Log2fold change (vs ΔrhlI without AHL): −0.2301
phzD1 Log2fold change (vs ΔrhlI without AHL): −0.5047
phzD2 Log2fold change (vs ΔrhlI without AHL): −0.458
phzE1 Log2fold change (vs ΔrhlI without AHL): −0.5209
phzE2 Log2fold change (vs ΔrhlI without AHL): −0.574
phzF1 Log2fold change (vs ΔrhlI without AHL): −0.731
phzF2 Log2fold change (vs ΔrhlI without AHL): −0.7224
phzG1 Log2fold change (vs ΔrhlI without AHL): −0.7812
phzG2 Log2fold change (vs ΔrhlI without AHL): −0.325
phzM Log2fold change (vs ΔrhlI without AHL): −1.898
phzS Log2fold change (vs ΔrhlI without AHL): −1.303
pqsA Log2fold change (vs ΔrhlI without AHL): 0.5012
pqsB Log2fold change (vs ΔrhlI without AHL): 0.621
pqsC Log2fold change (vs ΔrhlI without AHL): 0.5508
pqsD Log2fold change (vs ΔrhlI without AHL): 0.4552
pqsE Log2fold change (vs ΔrhlI without AHL): 0.3409
rhlA Log2fold change (vs ΔrhlI without AHL): −0.336
rhlB Log2fold change (vs ΔrhlI without AHL): 0.3232
rhlR Log2fold change (vs ΔrhlI without AHL): −0.1335
